The NIST ThermoML archive (doi:10.1021/je401026a)
± gives the expanded uncertainty stated by the source.

Conditions: 298 K; Liquid; Gas chromatography

SMILES	vapor or sublimation pressure
O=P(OC(CCl)CCl)(OC(CCl)CCl)OC(CCl)CCl [tris(1,3-dichloro-2-propanol) phosphate]	4.1e-07 ± 2.8e-07 kPa
O=P(OCCCl)(OCCCl)OCCCl [tris(2-chloroethyl) phosphate]	4.8e-05 ± 2.2e-05 kPa
CCCCC(CC)COP(=O)(Oc1ccccc1)Oc1ccccc1 (stereo unspecified) [2-ethylhexyl diphenyl phosphate]	8.9e-08 ± 6.3e-08 kPa
Cc1cccc(OP(=O)(Oc2cccc(C)c2)Oc2cccc(C)c2)c1 [tri-m-tolyl phosphate]	2.1e-08 ± 1.8e-08 kPa
CCCCOCCOP(=O)(OCCOCCCC)OCCOCCCC [tris(2-butoxyethyl) phosphate]	4.9e-08 ± 3.8e-08 kPa
CC(CCl)OP(=O)(OC(C)CCl)OC(C)CCl (stereo unspecified) [tris(1-chloro-2-propyl) phosphate]	3.5e-05 ± 1.7e-05 kPa
Cc1ccc(OP(=O)(Oc2ccc(C)cc2)Oc2ccc(C)cc2)cc1 [phosphoric acid, tri-p-cresyl ester]	1.1e-08 ± 1.2e-08 kPa
CCCCC(CC)COP(=O)(OCC(CC)CCCC)OCC(CC)CCCC (stereo unspecified) [tris(2-ethylhexyl) phosphate]	2.1e-08 ± 1.8e-08 kPa
O=P(Oc1ccccc1)(Oc1ccccc1)Oc1ccccc1 [triphenyl phosphate]	2.7e-07 ± 2e-07 kPa
Cc1ccccc1OP(=O)(Oc1ccccc1C)Oc1ccccc1C [tri-2-tolyl phosphate]	5.1e-08 ± 2.6e-08 kPa
CC(C)c1ccccc1OP(=O)(Oc1ccccc1C(C)C)Oc1ccccc1C(C)C [tris(2-(1-methylethyl)-phenol) phosphate]	6e-09 ± 9e-09 kPa
